Assay results published in article PMC11274883, “Anticancer Effect of Pt^[sequence], Pt^II5MESS, Pt^II56MESS and Their Platinum(IV)-Dihydroxy Derivatives against Triple-Negative Breast Cancer and Cisplatin-Resistant Colorectal Cancer” (Cancers, 2024).

Key:
Format in all cases: cell-based
MDA−MB−231 cells [1] = test: Western blot protein expression; settings: MDA−MB−231, IC50, 72 h; for β-actin/GAPDH normalized to control (1): representative blot Figure S24A; for β-tubulin/GAPDH normalized to control (1): representative blot Figure S24B; for α-tubulin/GAPDH normalized to control (1): representative blot Figure S24C; for p-AKT/AKT/GAPDH normalized to control (1): representative blot Figure S25A; for p-ERK/ERK/GAPDH normalized to control (1): representative blot Figure S25B; for p53/GAPDH normalized to control (1): representative blot Figure S25C; for p21/GAPDH normalized to control (1): representative blot Figure S25D; for Bax/GAPDH normalized to control (1): representative blot Figure S26A; for Bcl2/GAPDH normalized to control (1): representative blot Figure S26B; for Cytochrome C/GAPDH normalized to control (1): representative blot Figure S26C; for Procaspase 8/GAPDH normalized to control (1): representative blot Figure S26D; for Cleaved BID/GAPDH normalized to control (1): representative blot Figure S26E; for Procaspase 9/GAPDH normalized to control (1): representative blot Figure S26F; for Procaspase 3/GAPDH normalized to control (1): representative blot Figure S26G; for PARP-1/GAPDH normalized to control (1): representative blot Figure S26H; for Beclin1/GAPDH normalized to control (1): representative blot Figure S27A; for ATG5/GAPDH normalized to control (1): representative blot Figure S27B; for ATG16L1/GAPDH normalized to control (1): representative blot Figure S27C; for ATG9A/GAPDH normalized to control (1): representative blot Figure S27D; for ATG4B/GAPDH normalized to control (1): representative blot Figure S27E; for LC3B/GAPDH normalized to control (1): representative blot Figure S27F
How it was run: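 Cells were lysed in RIPA buffer with orthovanadate, and 20 µg protein was run on SDS-PAGE, transferred to PVDF and probed for proliferation, apoptosis, microtubule and autophagy markers. ECL band intensities were normalised to GAPDH and then to untreated control. Three independent experiments were run per marker.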

HT29 cells = test: Cellular localisation of Pt (fractionation, ICP-MS); settings: HT29, 3 µM, 24 h
Method: (§1) MDA−MB−231 and HT29 cells were seeded at a final concentration of 10^6 cells/well in 6-well plates and incubated overnight. Cells were then treated with 3 µM of either Pt^II or Pt^IV complexes for 24 h. The media was next removed, and cells were washed three times with ice-cold PBS. Then the cells were trypsinised. The isolation of individual fractions was carried out using the Fraction-PREP Cell Fractionation kit (ab288085, Abcam, Cambridge, MA, USA). The cell pellet was resuspended in ice-cold PBS and moved to Eppendorf tubes to spin for 5 min at 700× g and supernatant was removed. The pellet was then resuspended in 400 µL of cytosol extraction buffer mix and incubated for 20 min on ice. Next, samples were centrifuged at 700× g for 10 min and the supernatant was collected as the cytosolic fraction. The pellet was then resuspended in 400 µL of ice-cold membrane A extraction buffer mix and vortexed for 10 s, after which membrane B extraction buffer mix was added and incubated on ice for 1 min. The sample was then vortexed and centrifuged for 5 min at 1000× g. […] The pellet was then resuspended in 200 µL of ice-cold nuclear extraction buffer, vortexed for 20 s and then incubated on ice for 40 min with constant vortexing every 10 min. The samples were then centrifuged for 10 min at maximum speed. […] Platinum cell localisation was then measured via ICP-MS, as described in Section 2.5.

MDA−MB−231 cells [2] = test: as above; settings: MDA−MB−231, 3 µM, 24 h
Method: as §1

SMILES | β-actin/GAPDH normalized to control (1) (MDA−MB−231 cells [1]) | β-tubulin/GAPDH normalized to control (1) (MDA−MB−231 cells [1]) | α-tubulin/GAPDH normalized to control (1) (MDA−MB−231 cells [1]) | p-AKT/AKT/GAPDH normalized to control (1) (MDA−MB−231 cells [1]) | p-ERK/ERK/GAPDH normalized to control (1) (MDA−MB−231 cells [1]) | p53/GAPDH normalized to control (1) (MDA−MB−231 cells [1]) | p21/GAPDH normalized to control (1) (MDA−MB−231 cells [1]) | Bax/GAPDH normalized to control (1) (MDA−MB−231 cells [1]) | Bcl2/GAPDH normalized to control (1) (MDA−MB−231 cells [1]) | Cytochrome C/GAPDH normalized to control (1) (MDA−MB−231 cells [1]) | Procaspase 8/GAPDH normalized to control (1) (MDA−MB−231 cells [1]) | Cleaved BID/GAPDH normalized to control (1) (MDA−MB−231 cells [1]) | Procaspase 9/GAPDH normalized to control (1) (MDA−MB−231 cells [1]) | Procaspase 3/GAPDH normalized to control (1) (MDA−MB−231 cells [1]) | PARP-1/GAPDH normalized to control (1) (MDA−MB−231 cells [1]) | Beclin1/GAPDH normalized to control (1) (MDA−MB−231 cells [1]) | ATG5/GAPDH normalized to control (1) (MDA−MB−231 cells [1]) | ATG16L1/GAPDH normalized to control (1) (MDA−MB−231 cells [1]) | ATG9A/GAPDH normalized to control (1) (MDA−MB−231 cells [1]) | ATG4B/GAPDH normalized to control (1) (MDA−MB−231 cells [1]) | other results
Cc1c(C)c2cccnc2c2ncccc12.N[C@H]1CCCC[C@@H]1N.O=[N+]([O-])[O-].O=[N+]([O-])[O-].[Pt+2] [Pt^II56MESS, [Pt(5,6-dimethyl-1,10-phenanthroline)(1S,2S-diaminocyclohexane)](NO3)2] | 0.5956 | 0.5978 | 0.7887 | 0.5229 | 0.06081 | 0.6187 | 2.6 | 1.276 | 0.6846 | 3.109 | 0.3584 | 14.74 | 0.4755 | 0.4243 | 0.634 | 3.15 | 0.4012 | 0.5726 | 0.2848 | 2.107 | LC3B/GAPDH normalized to control (1) (MDA−MB−231 cells [1]): 0.8478
N[C@H]1CCCC[C@@H]1N.O=[N+]([O-])[O-].O=[N+]([O-])[O-].[Pt+2].c1cnc2c(c1)ccc1cccnc12 [[Pt(1,10-phenanthroline)(1S,2S-diaminocyclohexane)](NO3)2] | 0.4744 | 1.15 | 0.9355 | 0.6042 | 0.6771 | 1.105 | 1.812 | 1.161 | 0.8361 | 1.827 | 0.5195 | 13.39 | 0.2042 | 0.3207 | 0.7775 | 1.911 | 0.7762 | 0.6758 | 0.361 | 1.546 | LC3B/GAPDH normalized to control (1) (MDA−MB−231 cells [1]): 0.9969
N.N.[Cl][Pt][Cl] [Cisplatin, cisplatin] | 0.5805 | 1.195 | 0.9486 | 0.6181 | 0.2123 | 1.585 | 1.351 | 1.836 | 0.7529 | 2.371 | 0.5682 | 11.07 | 1.122 | 0.8253 | 0.7867 | 0.9211 | 0.8216 | 0.9512 | 0.6551 | 1.551 | subcellular fraction with main platinum accumulation (HT29 cells): membrane/particulate fraction; subcellular fraction with main platinum accumulation (MDA−MB−231 cells [2]): membrane/particulate fraction; LC3B protein expression level increase (MDA−MB−231 cells [1]; Figure 12D): up to 3 folds; LC3B/GAPDH normalized to control (1) (MDA−MB−231 cells [1]): 1.368
N[C@H]1CCCC[C@@H]1N.O=[N+]([O-])[O-].O=[N+]([O-])[O-].[OH-].[OH-].[Pt+4].c1cnc2c(c1)ccc1cccnc12 [[Pt(1,10-phenanthroline)(1S,2S-diaminocyclohexane)(dihydroxy)](NO3)2] | 0.835 | 0.6552 | 0.9279 | 1.063 | 0.1206 | 1.176 | 1.346 | 1.398 | 0.7843 | 2.378 | 0.2888 | 1.33 | 0.2675 | 0.4093 | 0.5717 | 1.408 | 1.129 | 0.9987 | 0.774 | 1.581 | LC3B/GAPDH normalized to control (1) (MDA−MB−231 cells [1]): 0.6076
